Laboratory results: patent US20100093613A1, “METHODS FOR IDENTIFYING AGENTS AND THEIR USE FOR THE PREVENTION OR STABILIZATION OF FIBROSIS” (priority 2007, published 2010)

Experiments:
[1] = test system: Fibroblasts; assay: BioMAP HDF3CGF system (IL-1β + TNF-α + IFN-γ + EGF + bFGF + PDGFbb), scoring of readout parameters; type: cell-based, human; settings: for PAI-1 score: desired change decrease; for MMP-1 score: desired change increase; for EGFR score: desired no change or increase
Procedure: In the “HDF-3CGF” system, dermal fibroblast cells, usually primary human dermal fibroblast cells are cultured alone or in the presence of lung epithelial cells, usually primary human lung epithelial cells, with two or more factors selected from: TNF, IL-1, IFNγ, EGF, bFGF+HSPG (heparan sulfate proteoglycan), and PDGFbb. In some embodiments three or more factors are present, four or more, five or more, or all six factors are present.
Human neonatal dermal fibroblasts (HDFn) or adult lung fibroblasts (HDFp) or fibroblasts from tissues such as liver, heart, or kidney are used. Cells are cultured at 3×10^4 cells/ml in DMEM/F12 (50/50) from Cellgro, supplemented with LSGS kit (from Cascade Biologics); fetal bovine serum, 2% v/v, hydrocortisone 100 nM, human epidermal growth factor 10 ng/ml, basic fibroblast growth factor 3 ng/ml and heparin 10 μg/ml, and penicillin/streptomycin amphotericin B solution (PSA), until confluency. Medium is replaced with DMEM/F12 with only penicillin/streptomycin amphotericin B solution (PSA), then 24 hours later, the following are applied:
After another 24, 48 or 72 hours incubation (37° C., 5% CO2) the cultures are evaluated for the following parameters: ICAM, VCAM, CD40, CD90, IP-10, MCP-1, Collagen I, Mig, m-CSF, TIMP-2, PAI-I, IL-8, Collagen III, HLA-DR, MMP-1, MMP-9, proliferation, TGF-b1, eotaxin-3, decorin, alpha-SMC, MLCK, I-TAC, EGFR, TIMP-1.
Cell culture. […] Human dermal fibroblasts were pooled from 3 donors, cultured according to standard methods, and plated confluent 24 h before stimulation. Cell culture medium for all systems containing fibroblasts and keratinocytes contained low hydrocortisone. […] Concentrations/amounts of agents added to confluent microtiter plates to build each system: cytokines (IL-1β, 1 ng/ml; TNF-α, 5 ng/ml; IFN-γ, 20 ng/ml; IL-4, 5 ng/ml), activators (SAg, 20 ng/ml; histamine, 10 μM; zymosan, 10 μg/ml; or LPS, 2 ng/ml), growth factors (TGF-β, 5 ng/ml; EGF, bFGF, and PDGF-BB, 10 ng/ml), and PBMC (7.5×10^4 cells/well) or macrophages (3.5×10^4 cells/well).

[2] = test system: human primary cells; assay: Total score for desired parameter modulation over the BioMAP systems of Table 1; type: cell-based; settings: penalties not applied
Description: (§1) Each screened compound is scored according to its modulation of the selected readout parameters. Compounds receive a positive score (score of 1) or negative score (score of 0) for each readout parameter set forth in Table 2 that is modulated in the desired direction. […] Parameters may be penalized by making the positive score a −1 for parameters where regulation is opposite to the desired direction.
The relative importance of each parameter may be weighted by the screener to select those parameters of greatest interest for a particular application.
(§2) Compounds were first selected to inhibit PAI-1 in the HDFT as an indication of TBF-b signaling inhibition without being cytotoxic. […] Blank spots in Table 3 were where parameter was not assayed. Penalties were not applied for this scoring.
BioMAP Systems are designed to model complex human disease biology in a practical in vitro format. This is achieved by stimulating human primary cells (single cell type or defined mixtures of cell types) such that multiple disease-relevant signaling pathways are simultaneously active. The choice of cell types and stimulations is guided by the knowledge of disease biology and mechanisms. Incorporating appropriate cell types and stimulating signaling pathways relevant to disease states allows association of biological activities detected in BioMAP Systems with disease processes. Drug effects are then recorded by measuring biologically meaningful protein readouts that provide coverage of biological space of interest (e.g., inflammation, tissue remodeling) and allow discrimination between different drug classes tested.
(§3) Cell culture. Human umbilical vein endothelial cells (HUVEC) were pooled from multiple donors, cultured according to standard methods, and plated into microtiter plates at passage 4. Cell culture medium for all systems containing HUVEC included hydrocortisone. Coronary artery smooth muscle cells (CASM3C) and umbilical artery smooth muscle cells (HSM3C) were cultured according to standard procedures. Peripheral blood mononuclear cells (PBMC) were prepared from buffy coats from normal human donors according to standard methods. Monocyte-derived macrophages were differentiated in the presence of M-CSF for 7 d according to standard procedures. Human dermal fibroblasts were pooled from 3 donors, cultured according to standard methods, and plated confluent 24 h before stimulation. Cell culture medium for all systems containing fibroblasts and keratinocytes contained low hydrocortisone. Epidermal keratinocytes and bronchial epithelial cells from 3 donors were cultured according to standard procedures and pooled when plated into microtiter plates. For keratinocyte-fibroblast co-cultures, cells were plated simultaneously 24 h before stimulation. For bronchial epithelial cell-fibroblast co-cultures, fibroblasts were plated and cultured 48 before addition of epithelial cells, then cultured another 24 hr before stimulation. Concentrations/amounts of agents added to confluent microtiter plates to build each system: cytokines (IL-1β, 1 ng/ml; TNF-α, 5 ng/ml; IFN-γ, 20 ng/ml; IL-4, 5 ng/ml), activators (SAg, 20 ng/ml; histamine, 10 μM; zymosan, 10 μg/ml; or LPS, 2 ng/ml), growth factors (TGF-β, 5 ng/ml; EGF, bFGF, and PDGF-BB, 10 ng/ml), and PBMC (7.5×10^4 cells/well) or macrophages (3.5×10^4 cells/well).
(§4) Compounds. Compounds were prepared in the solvent directed, added 1 hr before stimulation of the cells, and were present during the 24 hr stimulation period for the measurement of parameters listed in Table 2. For proliferation, compounds added 1 hr before stimulation of the cells with cytokines, and were present during the 48 to 72 hr assay. If prepared in DMSO, the final concentration of solvent was 0.1% or less.
Readout Parameter Measurements. The levels of readout parameters were measured by ELISA.

[3] = test system: Bronchial epithelial cells; assay: BioMAP BE3C system (IL-1β + TNF-α + IFN-γ), scoring of readout parameters; type: cell-based, human; settings: for PAI-1 score: desired change decrease
Description: as §1, §3, §4
(§5) Readout Parameter Measurements. The levels of readout parameters were measured by ELISA. Briefly, microtiter plates are treated, blocked, and then incubated with primary antibodies or isotype control antibodies (0.01-0.5 microg/ml) for 1 hr. After washing, plates were incubated with a peroxidase-conjugated anti-mouse IgG secondary antibody or a biotin-conjugated anti-mouse IgG antibody for 1 hr followed by streptavidin-HRP for 30 min. Plates were washed and developed with TMB substrate and the absorbance (OD) was read at 450 nm (subtracting the background absorbance at 650 nm). Quantitation of TNF-alpha or PGE2 in the LPS system was done using a commercially available kit according to the manufacturer's directions. Proliferation of endothelial cells (HUVEC and CAEC), smooth muscle cells (SMC and CASMC), and PBMC (T cells) was quantitated by Alamar Blue reduction or SRB.
(§6) Data analysis. Mean OD values for each parameter were calculated for compounds run in duplicate. The mean value (or single well OD value) for each parameter in a treated sample was then divided by the mean value from an appropriate control to generate a ratio. All ratios were then log10 transformed. 95% significance prediction envelopes (grey shading in Figures) were calculated for historical controls.

[4] = test system: Fibroblasts; assay: BioMAP HDFT system (TGF-β), scoring of readout parameters; type: cell-based, human; parameters: key to PAI-1 score: 1 = modulated in desired direction, 0 = not (no penalties applied); settings: HDFT; desired change decrease
Description: as §1, §2, §3, §4, §5
Data analysis. Mean OD values for each parameter were calculated for compounds run in duplicate. The mean value (or single well OD value) for each parameter in a treated sample was then divided by the mean value from an appropriate control to generate a ratio.

[5] = test system: Fibroblasts; assay: BioMAP HDF3CT system (IL-1β + TNF-α + IFN-γ + TGF-β), scoring of readout parameters; type: cell-based, human
Description: as §1, §3, §4, §5, §6

[6] = test system: Peripheral Blood Mononuclear Cells + Umbilical Vein Endothelial Cells; assay: BioMAP LPS system (TLR4), scoring of readout parameters; type: cell-based, human; settings: LPS (by position); desired change decrease
Description: as §1, §3, §4, §5, §6

[7] = test system: Bronchial epithelial cells; assay: BioMAP BE4T system (IL-4 + TNF-a), scoring of readout parameters; type: cell-based, human; parameters: key: 1 = modulated in desired direction, 0 = not (−1 = opposite); settings: for PAI-1 score: desired change decrease; for EGFR score: desired no change or increase
Procedure: In the “BE4T” system, bronchial epithelial cells, usually primary human bronchial epithelial cells, are cultured in the presence of TNF-α and IL-4.
as §1, §3, §4, §5, §6

[8] = test system: Umbilical Vein Endothelial Cells; assay: BioMAP 3C system (IL-1β + TNF-α + IFN-γ), scoring of readout parameters; type: cell-based, human; settings: for HLA-DR score: desired change decrease; for uPAR score: desired change increase
Description: as §1, §3, §4, §5, §6

[9] = PMID 17023731, PMID 8421998; cited from earlier work

| Compound | PAI-1 score [1] | MMP-1 score [1] | EGFR score [1] | Score (Fraction correctly modulated parameters out of 45-58 total) [2] | HLA-DR score [3] | MMP-1 score [3] | PAI-1 score [3] | PAI-1 score [4] | MMP-1 score [5] | TF score [6] | uPA score [7] | PAI-1 score [7] | EGFR score [7] | HLA-DR score [8] | uPAR score [8] | anti-fibrotic activity [9] |
| --- | --- | --- | --- | --- | --- | --- | --- | --- | --- | --- | --- | --- | --- | --- | --- | --- |
| Cc1cc(C2CCCCC2)n(O)c(=O)c1.NCCO [Ciclopirox Ethanolamine] | 1 | 0 | 0 | 0.31 | 0 | 0 | 0 | 1 | 0 | 0 | 0 | 0 | 1 | 0 | 0 | – |
| Cc1[nH]ccc2c1[nH]c1cc(=O)ccc12 [Harmol] | 1 | 0 | 0 | 0.29 | 0 | 0 | 1 | 1 | 0 | 1 | 0 | 0 | 0 | 0 | 0 | – |
| COc1cc(/C=C/C(=O)N2CCC=CC2=O)cc(OC)c1OC [Piperlongumine] | 1 | 0 | 0 | 0.47 | 0 | 0 | 0 | 1 | 0 | 1 | 0 | 0 | 0 | 0 | 0 | – |
| C=C(NC(=O)C(=C)NC(=O)c1csc(C2=N[C@@H]3c4csc(n4)[C@H]4NC(=O)c5csc(n5)[C@H]([C@](C)(O)[C@@H](C)O)NC(=O)[C@H]5CSC(=N5)/C(=C/C)NC(=O)[C@H]([C@@H](C)O)NC(=O)c5csc(n5)[C@]3(CC2)NC(=O)[C@H](C)NC(=O)C(=C)NC(=O)[C@H](C)NC(=O)[C@H]([C@@H](C)CC)N[C@@H]2C=Cc3c([C@H](C)O)cc(nc3[C@H]2O)C(=O)O[C@@H]4C)n1)C(N)=O [Thiostrepton] | 1 | 0 | 0 | 0.42 | 0 | 0 | 0 | 1 | 0 | 1 | 0 | 0 | 1 | 0 | 0 | – |
| CC(=O)S[C@@H]1CC2=CC(=O)CC[C@]2(C)[C@H]2CC[C@@]3(C)[C@@H](CC[C@@]34CCC(=O)O4)[C@H]12 [spironolactone] | – | – | – | high scores | – | – | – | – | – | – | – | – | – | – | – | known anti-fibrotic activity |
